This note sets out measurements from patent publication EP0897904B1, “Fungicidal 2-methoxybenzophenones” (BASF AKTIENGESELLSCHAFT, priority 1997, dated 1999).

The subject of test [1] is Blumeria (Erysiphe) graminis DC. f.sp. tritici E. Marchal. The test can be described thus: Curative and residual control test, Wheat Powdery Mildew (WPM). Conditions: read-out: Disease control (% efficacy). The format is in vivo. An excerpt:
• (a) Wheat Powdery Mildew (WPM): HOST: Wheat (Triticum aestivum L.) variety Kanzler PATHOGEN: Blumeria (Erysiphe) graminis DC. f.sp. tritici E. Marchal • (b) Cucumber Powdery Mildew (QPM): HOST: Cucumber (Cucumis sativus L.) variety Bush pickle PATHOGEN: Erysiphe cichoracearum DC
This test procedure is for curative and residual control of powdery mildew diseases. • 1. Wheat seed (approximately 8-10/pot) or cucumber seed (1 seed / pot) is planted in 6 cm diameter plastic pots and maintained in the greenhouse. • 2. When the primary leaf (wheat) or the cotyledons (cucumber) is/are fully expanded, formulated test compounds are sprayed with a single nozzle overhead track sprayer at a rate of 200 l/ha. Plants are then allowed to air-dry. • 3. Inoculation precedes treatment by 2 or 3 days in the case of curative evaluations and follows treatment by 3 or 4 days in case of residual evaluations. For inoculation, plants are set up on greenhouse benches with bottom watering mats and inoculated by dusting them with conidia from powdery mildew infected plants (stock cultures at an age of 10-14 days). Between inoculation and treatment for curative evaluations and between treatment and inoculation for residual evaluations, plants are maintained in the greenhouse with bottom watering. • 4. Disease on the primary leaf (wheat) or on the cotyledons (cucumber) as percent leaf area with disease symptoms/signs is evaluated about 7 days after inoculation. In the case of wheat, the tips and bases of the leaves are excluded from the evaluation. Percent disease control is then calculated by the following formula: % disease control = 100 -(% infection in treated plants)/(% infection in untreated plants)x 100 [formula]
(§1) • 1. Technical compounds are formulated in a solvent/surfactant system consisting of 5% acetone and 0.05% Tween 20 in deionized water. Compounds are dissolved in acetone prior to addition of the water; the Tween 20 can be added through either the acetone or the water. Dilutions are made using the solvent/surfactant system. Formulated compounds are prepared using deionized water. • 2. Two kinds of controls are included: • Plants treated with the solvent/surfactant solution and inoculated (Solvent Blank). • Untreated plants which are inoculated (Inoculated Control).

Test [2] shares this test system. The test can be described thus: Zero day protectant test, Wheat Powdery Mildew (WPM). Conditions: wheat variety Kanzler, 0 day protectant test, side-by-side, technical material in 0.5% acetone 0.05% Tween 20 water. The format is in vivo.
Source text: • (a) Wheat Powdery Mildew (WPM): HOST: Wheat (Triticum aestivum L.) variety Kanzler PATHOGEN: Blumeria (Erysiphe) graminis DC. f.sp. tritici E. Marchal • (b) Barley Powdery Mildew (BPM): HOST: Barley (Hordeum vulgare L.) variety Golden Promise PATHOGEN: Blumeria (Erysiphe) graminis DC. f.sp. hordei E. Marchal
This test is a zero day protectant test for control of wheat and barley powdery mildews. • 1. Wheat or barley seed (approximately 8-10/pot) is planted in 6 cm diameter plastic pots and maintained in the greenhouse. • 2. When the primary leaf is fully expanded, formulated test compounds are sprayed with a single nozzle overhead track sprayer at a rate of 200 l/ha. Plants are then allowed to air-dry. • 3. Inoculation follows about three hours after compound application. Plants are set up on greenhouse benches with bottom watering mats and inoculated by dusting them with conidia from powdery mildew infected plants (stock cultures at an age of 10-14 days). • 4. Disease on the primary leaf as percent leaf area with disease symptoms/signs is evaluated about 7 days after inoculation. The tips and bases of the leaves are excluded from the evaluation. Percent disease control is then calculated by the following formula: % disease control = 100 -(% infection in treated plants)/(% infection in untreated plants)x 100 [formula]
as §1, with “system. Test compounds are typically tested over a range of concentrations covering several orders of magnitude and then ED values are calculated for comparison of compounds.” for “system.”
Compounds applied as technical material formulated in 0.5% acetone 0.05% Tween 20 water

Like-named read-outs stand apart in the source and are kept apart here.

As to `COc1cc(C)c(C(=O)c2c(C)cccc2OC)c(OC)c1OC` [Example 1, 6,6'-dimethyl-2,2',3',4'-tetramethoxy-benzophenone], the percent disease control at 12.5 ppm turned out to be 69% in test [1] (48 h, WPM 2 da C (2 day curative), 12,5 ppm, Test A) and 90% in test [1] (72 h, WPM 3 da R (3 day residual), 12,5 ppm, Test A). For the same molecule, the Emax at 12.5 ppm in test [1] (48 h, WPM 2 da C (2 day curative), 12,5 ppm, Test B) came to 52%; in test [1] (72 h, WPM 3 da R (3 day residual), 12,5 ppm, Test B) it was 100%. In addition, the percent disease control at 125 ppm came out at 79% in test [1] (48 h, WPM 2 da C (2 day curative), 125 ppm, Test A); 100% in test [1] (72 h, WPM 3 da R (3 day residual), 125 ppm, Test A); 100% in test [1] (72 h, WPM 3 da R (3 day residual), 125 ppm, Test B). In addition, the Emax at 125 ppm in test [1] (48 h, WPM 2 da C (2 day curative), 125 ppm, Test B) was determined as 65%. The percent disease control at 1250 ppm worked out at 88% in test [1] (48 h, WPM 2 da C (2 day curative), 1250 ppm, Test A); 100% in test [1] (72 h, WPM 3 da R (3 day residual), 1250 ppm, Test A); 100% in test [1] (72 h, WPM 3 da R (3 day residual), 1250 ppm, Test B). Moreover, in test [1] (48 h, WPM 2 da C (2 day curative), 1250 ppm, Test B), the Emax at 1250 ppm came out at 85%. The “ED90 (ppm)” value in test [2] stood at 4 ppm.
